From patent US4740499A, “Method of enhancing the bioactivity of atrial peptides” (Monsanto Company, priority 1986, dated 1988)

How the values were obtained:
[1] = system: rabbit kidney brush border membranes (RBBM); assay: physchem; assay type: biochemical; details: 20 μg RBBM, 100 nM inhibitor, 60 min, 25° C.
Experimental: The kelatorphan was prepared according to the method described for compound 13 by Fournie-Saluski et al., J. Med. Chem. 28, 1158-1169 (1985). The following procedure was performed at 4° C. Rabbit kidneys were obtained fresh and were perfused with buffer A (containing 5 mM Tris, pH 7.5, 0.25 M sucrose, 3 mM MgCl2 and 1 mM EDTA) to remove the blood. (EDTA=ethylenediaminetetraacetic acid.) The kidneys were minced, homogenized in 5 volumes of ice-cold buffer A with a Brinkmann Polytron homogenizer and filtered through two layers of cheesecloth. The filtrate was centrifuged at 5,000×g for 20 min, the pellet was discarded and the supernatant was centrifuged at 15,000×g for 20 min. The supernatant was retained and then centrifuged at 100,000×g for 90 min. The pellet was resuspended in 50 mM Tris, pH 7.5, and the suspension was centrifuged at 100,000×g for 90 min. The washed pellet was resuspended in 50 mM Tris, pH 7.5, to give a final protein concentration of 4 mg/ml using the protein assay of Bradford, Anal. Biochem. 72, 248-254 (1976). The membrane preparation was assayed for aminopeptidase and alkaline phosphatase activities which are the marker enzymes for the kidney brush border. See Inui et al., Biochim. Biophys. Acta 647, 150-154 (1981). The final membrane preparation was enriched 8-fold in alkaline phosphatase activity, and 11-fold in aminopeptidase activity, compared to the homogenate. Renal brush border membranes (10-20 μg) were preincubated for 15 min at 25° C. in a solution containing the inhibitor and 50 mM Tris, pH 7.5. […] Incubations were for 60 min at 25° C. and were terminated by removing the membranes by filtration using Gelman GA-6 filters. The filtrates were immediately frozen on dry ice and were stable for 1 week when stored at -80° C. Samples containing the peptide degradation products were resolved by C18 reversed phase high pressure liquid chromatography (HPLC). The frozen samples were thawed immediately before injection onto a Vydac C18 column (4.6 mm I.D.×25 cm; 5 micron/300 Å) equilibrated with water containing 0.05% trifluoracetic acid (TFA). Peptide fragments and starting material were separated on a linear gradient of 0-35% acetonitrile also containing 0.05% TFA. Both the gradient and the flow rate (1 ml/min) were maintained by a Waters HPLC system consisting of two Model 510 pumps connected to an Automated Gradient Controller. Column effluent was monitored at 220 nm by a Waters Model 481 spectrophotometer, and the amount of atrial peptide material and peptide fragments were measured via a Hewlett-Packard Model […] integrator. […] Therefore, in those cases where the N-terminal serine was removed, the total amount of biologically active material remaining at the end of the incubation was taken as the % starting material remaining plus % des […] -AP-I or des […] -AP-III (as appropriate), as calculated from the peak areas of the individual peptides on HPLC.

[2] = HPLC analysis of thiorphan after dissolution in NaOH and neutralisation; assay type: physicochemical; details: dissolved in 0.1 N NaOH, neutralized with 0.5 N HCl, diluted with 0.9% saline
Experimental: (§1) Thiorphan was dissolved in a minimal amount of 0.1 N NaOH to produce the sodium salt. The solution was immediately neutralized using 0.5 N HCl and diluted to a final concentration with 0.9% saline.

[3] = Plasma AP-III levels (radioimmunoassay) in rats, first test: constant AP-III infusion, varied thiorphan dose; assay type: in vivo, rat; details: for AP-III Plasma concn. / Increase of plasma AP-III levels over control levels: rat; for AP-III Plasma concn.: AP-III 833 ng/kg/min i.v. infusion; for Increase of plasma AP-III levels over control levels: AP-III 833 ng/kg/min
Experimental: Plasma levels of atriopeptin III (AP-III) were tested in rats in which the AP-III was infused intravenously both with and without contemporaneous administration of thiorphan.
Male Sprague-Dawley rats, 240-310 g, were used for all tests. The rats were housed in the test facilities for at least 6 days before they were used.
Cannulas were made of PE-10 (polyethylene) tubing inserted and glued into a piece of PE-50 tubing. Rats were anesthetized with pentobarbital (50 mg/kg i.p.) and had cannulas inserted into the left femoral vein and artery. Both were inserted four cm into the vessels and tied securely. They were then tunnelled under the skin and brought out between the rat's shoulder blades and then cut so that only 1-2 cm was externalized. Cannulas were glued in place using Superglue and filled with saline containing 100 units heparin/ml. Rats were allowed to wake up and then housed individually with food and water ad libitum.
Two days after surgery, the rats were weighed and put into restraining cages that allowed limited movement. […] Blood was collected from the femoral artery and replaced with saline containing 10 units heparin/ml. In most tests, 0.3 ml blood was taken, except that when basal AP-III levels were measured 0.4 ml blood was withdrawn. Blood was immediately centrifuged in a microcentrifuge for one minute and plasma was frozen in plastic tubes placed on dry ice. Samples were kept in a -80° C. freezer until they were analyzed.
as §1
After taking the second sample, thiorphan was given as a bolus injection into the femoral artery and the line was flushed with 0.2 ml saline. The doses of thiorphan were 1,3,10 and 30 mg/kg; one set of rats received only a saline bolus as a control. Blood was taken 10,20,30 and 60 minutes after the injection of thiorphan. AP-III was infused during the entire experiment for a total of 90 minutes.
Plasma AP-III levels were analyzed by radioimmunoassay using a second antibody to separate free and bound AP-III. The label was ^125 I-AP-III that was purified by HPLC after iodination. Conditions were set so that 35-40% of the total counts were precipitated. The incubation medium contained sodium phosphate, pH 7.4, 0.25% bovine serum albumin (BSA), 0.5% sodium azide and 3% PEG-8000 (polyethylene glycol). The primary antibody was from a guinea pig immunized against AP-III. The incubations were done overnight at 6° C. The next day, 2 ml of 0.125% BSA was added to each tube and then they were centrifuged for 45 min at 3000 rpm. They were decanted and the radioactivity was counted in a Micromedic gamma counter. The standard curve contained 10 to 600 pg AP-III/tube. Only the linear portion of the curve was used for quantification. Plasma samples were diluted so that the AP-III concentrations were in the range of the standard curve.

O=C(O)CNC(=O)C(CS)Cc1ccccc1 (racemic) [thiorphan, N-(DL-2-benzyl-3-mercapto-propionyl)glycine]
Peak area as % Initial AP: AP ([1]; (c) 40 μM AP-I): 27.3%
Peak area as % Initial AP: AP + des Ser^1 -AP ([1]; (c) 40 μM AP-I): 87.9%
Peak area as % Initial AP: des Ser^1 -AP ([1]; (c) 40 μM AP-I): 60.6%
Peak area as % Initial AP: AP ([1]; (c) 40 μM AP-III): 38.1%
Peak area as % Initial AP: AP + des Ser^1 -AP ([1]; (c) 40 μM AP-III): 86.1%
Peak area as % Initial AP: des Ser^1 -AP ([1]; (c) 40 μM AP-III): 48.0%
Peak area as % Initial AP: AP ([1]; (c) 40 μM SLRR(Met^8)AP-III): 86.5%
Peak area as % Initial AP: AP + des Ser^1 -AP ([1]; (c) 40 μM SLRR(Met^8)AP-III): 86.5%
Peak area as % Initial AP: des Ser^1 -AP ([1]; (c) 40 μM SLRR(Met^8)AP-III): 0%
Degradation due to method of dissolution (HPLC analysis) [2]: no apparent degradation
AP-III Plasma concn. ([3]; thiorphan 1 mg/kg arterial bolus after 30 min sample, 40 min (10 min after thiorphan)): 23.2 ± 3.1 ng/mL
AP-III Plasma concn. ([3]; thiorphan 1 mg/kg arterial bolus after 30 min sample, 50 min (20 min after thiorphan)): 22.2 ± 3.9 ng/mL
AP-III Plasma concn. ([3]; thiorphan 1 mg/kg arterial bolus after 30 min sample, 60 min (30 min after thiorphan)): 18.7 ± 2.2 ng/mL
AP-III Plasma concn. ([3]; thiorphan 1 mg/kg arterial bolus after 30 min sample, 90 min (60 min after thiorphan)): 15.3 ± 3.9 ng/mL
AP-III Plasma concn. ([3]; thiorphan 3 mg/kg arterial bolus after 30 min sample, 40 min (10 min after thiorphan)): 26.7 ± 3.5 ng/mL
AP-III Plasma concn. ([3]; thiorphan 3 mg/kg arterial bolus after 30 min sample, 50 min (20 min after thiorphan)): 29.5 ± 4.0 ng/mL
AP-III Plasma concn. ([3]; thiorphan 3 mg/kg arterial bolus after 30 min sample, 60 min (30 min after thiorphan)): 28.9 ± 5.6 ng/mL
AP-III Plasma concn. ([3]; thiorphan 3 mg/kg arterial bolus after 30 min sample, 90 min (60 min after thiorphan)): 21.2 ± 3.9 ng/mL
AP-III Plasma concn. ([3]; thiorphan 10 mg/kg arterial bolus after 30 min sample, 40 min (10 min after thiorphan)): 24.7 ± 2.7 ng/mL
AP-III Plasma concn. ([3]; thiorphan 10 mg/kg arterial bolus after 30 min sample, 50 min (20 min after thiorphan)): 29.2 ± 3.1 ng/mL
AP-III Plasma concn. ([3]; thiorphan 10 mg/kg arterial bolus after 30 min sample, 60 min (30 min after thiorphan)): 30.2 ± 4.8 ng/mL
AP-III Plasma concn. ([3]; thiorphan 10 mg/kg arterial bolus after 30 min sample, 90 min (60 min after thiorphan)): 25.5 ± 5.5 ng/mL
AP-III Plasma concn. ([3]; thiorphan 30 mg/kg arterial bolus after 30 min sample, 40 min (10 min after thiorphan)): 22.5 ± 2.7 ng/mL
AP-III Plasma concn. ([3]; thiorphan 30 mg/kg arterial bolus after 30 min sample, 50 min (20 min after thiorphan)): 28.8 ± 5.6 ng/mL
AP-III Plasma concn. ([3]; thiorphan 30 mg/kg arterial bolus after 30 min sample, 60 min (30 min after thiorphan)): 30.7 ± 6.0 ng/mL
AP-III Plasma concn. ([3]; thiorphan 30 mg/kg arterial bolus after 30 min sample, 90 min (60 min after thiorphan)): 31.3 ± 7.8 ng/mL
Increase of plasma AP-III levels over control levels ([3]; later times after thiorphan): 3 fold
Increase of plasma AP-III levels over control levels ([3]; ten minutes after injecting thiorphan): at least 2 fold
Increase of AP-III levels upon intravenous infusion ([3]; rats, thiorphan 1-30 mg/kg of body weight): at least two-fold
Plasma AP-III concentrations vs control, analysis of variance ([3]; thiorphan 1 mg/kg, all but the last time point): statistically different from control levels
Plasma AP-III concentrations vs control, analysis of variance ([3]; thiorphan 3, 10 and 30 mg/kg, all time points after thiorphan): statistically different from control levels
